# According to patent US11957716B2 (Immatics Biotechnologies GmbH, priority 2021, dated 2024):
# Key:
# [1] = test system: HLA-A*01:01, HLA-A*02:01, HLA-A*03:01, HLA-A*24:02, HLA-B*07:02, HLA-B*08:01 and HLA-B*44:02; assay: HLA alleles the peptides bind to (Table 7); type: binding, human; details: allotype from the group HLA-A*01:01, HLA-A*02:01, HLA-A*03:01, HLA-A*24:02, HLA-B*07:02, HLA-B*08:01, HLA-B*44:02
# From the text: However, due to similarities in binding pattern such as the relevant anchoring positions some peptides bind to more than one allele, such an overlap is most likely, but not limited to, HLA-A*01 binding peptides also binding to HLA-B*15, HLA-A*03 binding peptides also binding to HLA-A*11, HLA-B*07 binding peptides also binding to HLA-B*35 and HLA-B*51.
# [2] = molecular target: HLA-A*03:01 (Homo sapiens, UniProt P04439); assay: MHC binding assay, UV-ligand exchange ELISA; details: peptide exchange yield, binding to HLA-A*03:01
# From the text: Candidate peptides for T cell based therapies according to the present invention were further tested for their MHC binding capacity (affinity). The individual peptide-MHC complexes were produced by UV-ligand exchange, where a UV-sensitive peptide is cleaved upon UV-irradiation and exchanged with the peptide of interest as analyzed. Only peptide candidates that can effectively bind and stabilize the peptide-receptive MHC molecules prevent dissociation of the MHC complexes. To determine the yield of the exchange reaction, an ELISA was performed based on the detection of the light chain (β2m) of stabilized MHC complexes. The assay was performed as generally described in Rodenko et al. (Rodenko et al., 2006).
# 96 well MAXISorp plates (NUNC) were coated over night with 2 μg/ml streptavidin in PBS at room temperature, washed 4× and blocked for 1 h at 37° C. in 2% BSA containing blocking buffer. Refolded HLA-A*02:01/MLA-001 monomers served as standards, covering the range of 15-500 ng/ml. Peptide-MHC monomers of the UV-exchange reaction were diluted 100-fold in blocking buffer. Samples were incubated for 1 h at 37° C., washed four times, incubated with 2 μg/ml HRP conjugated anti-82m for 1 h at 37° C., washed again and detected with TMB solution that is stopped with […]. Absorption was measured at 450 nm. Candidate peptides that show a high exchange yield (preferably higher than 50%, most preferred higher than 75%) are generally preferred for a generation and production of antibodies or fragments thereof, and/or T cell receptors or fragments thereof, as they show sufficient avidity to the MHC molecules and prevent dissociation of the MHC complexes.
Peptide exchange [2],Substance,Binders (HLA alleles the peptides according to the invention bind to) [1]
++++ (≥75% = ++++),1 (AILAPPAILK; listed as Homo sapiens) [compound 1],HLA-A*03:01
++ (≥20% = ++),2 (GTVFVLLSK; listed as Homo sapiens) [compound 2],HLA-A*03:01
++++ (≥75% = ++++),8 (VIYNQTLMK; listed as Homo sapiens) [compound 8],HLA-A*03:01
++++ (≥75% = ++++),17 (MVNWSLTNK; listed as Homo sapiens) [compound 17],HLA-A*03:01
++++ (≥75% = ++++),19 (RILEVVRQPK; listed as Homo sapiens) [compound 19],HLA-A*03:01
++++ (≥75% = ++++),20 (ILAPPAILK; listed as Homo sapiens) [compound 20],HLA-A*03:01
++++ (≥75% = ++++),21 (MLSAQFILK; listed as Homo sapiens) [compound 21],HLA-A*03:01
++++ (≥75% = ++++),22 (RVIEVVMNSK; listed as Homo sapiens) [compound 22],HLA-A*03:01
++++ (≥75% = ++++),24 (LIYIPTNSIYK; listed as Homo sapiens) [compound 24],HLA-A*03:01
++++ (≥75% = ++++),25 (GVCSTLTIK; listed as Homo sapiens) [compound 25],HLA-A*03:01
++++ (≥75% = ++++),28 (ATLQAVTLYKK; listed as Homo sapiens) [compound 28],HLA-A*03:01
++++ (≥75% = ++++),29 (GTFIAPVMK; listed as Homo sapiens) [compound 29],HLA-A*03:01
++++ (≥75% = ++++),34 (LLFKGLMWK; listed as Homo sapiens) [compound 34],HLA-A*03:01
+++ (≥50% = +++),35 (SLATAISAK; listed as Homo sapiens) [compound 35],HLA-A*03:01
++++ (≥75% = ++++),37 (RLYSGSSFLY; listed as Homo sapiens) [compound 37],HLA-A*03:01
+++ (≥50% = +++),38 (AVVSHFILY; listed as Homo sapiens) [compound 38],HLA-A*03:01
++++ (≥75% = ++++),44 (SLFPYFLNK; listed as Homo sapiens) [compound 44],HLA-A*03:01
++++ (≥75% = ++++),50 (KTIDLVIVR; listed as Homo sapiens) [compound 50],HLA-A*03:01
++++ (≥75% = ++++),51 (SVFSLVHLFDK; listed as Homo sapiens) [compound 51],HLA-A*03:01
+++ (≥50% = +++),53 (TTLENLPQK; listed as Homo sapiens) [compound 53],HLA-A*03:01
,61 (GLIAFAIFK; listed as Homo sapiens) [compound 61],HLA-A*03:01
+++ (≥50% = +++),70 (LIAGLIFLK; listed as Homo sapiens) [compound 70],HLA-A*03:01
++++ (≥75% = ++++),72 (GSCSFALSR; listed as Homo sapiens) [compound 72],HLA-A*03:01
+++ (≥50% = +++),75 (TTAAVYILK; listed as Homo sapiens) [compound 75],HLA-A*03:01

Peptide exchange [2],Substance,Binders (HLA alleles the peptides according to the invention bind to) [1]
,79 (SLFRLSISF; listed as Homo sapiens) [compound 79],HLA-A*24:02
+++ (≥50% = +++),81 (KLIAGLIFLK; listed as Homo sapiens) [compound 81],HLA-A*03:01
+++ (≥50% = +++),88 (KVGAVVHLK; listed as Homo sapiens) [compound 88],HLA-A*03:01
++ (≥20% = ++),90 (LALLGAPPPK; listed as Homo sapiens) [compound 90],HLA-A*03:01
+++ (≥50% = +++),91 (RIVTYIVAK; listed as Homo sapiens) [compound 91],HLA-A*03:01
++++ (≥75% = ++++),94 (AVFLGNPSNQK; listed as Homo sapiens) [compound 94],HLA-A*03:01
++++ (≥75% = ++++),101 (ATNSFLLIK; listed as Homo sapiens) [compound 101],HLA-A*03:01
+++ (≥50% = +++),104 (GSLQTLPPK; listed as Homo sapiens) [compound 104],HLA-A*03:01
++++ (≥75% = ++++),107 (SVISVLTTPK; listed as Homo sapiens) [compound 107],HLA-A*03:01
+++ (≥50% = +++),112 (ETYGTFVLR; listed as Homo sapiens) [compound 112],HLA-A*03:01
,119 (VLHGLLFTL; listed as Homo sapiens) [compound 119],HLA-A*02:01
+++ (≥50% = +++),125 (ALAQGANLK; listed as Homo sapiens) [compound 125],HLA-A*03:01
+++ (≥50% = +++),127 (TVATQVATSK; listed as Homo sapiens) [compound 127],HLA-A*03:01
++++ (≥75% = ++++),128 (MTFVPLLAR; listed as Homo sapiens) [compound 128],HLA-A*03:01
+++ (≥50% = +++),138 (RTLPLEGSPK; listed as Homo sapiens) [compound 138],HLA-A*03:01
++++ (≥75% = ++++),143 (AVLGALLRH; listed as Homo sapiens) [compound 143],HLA-A*03:01
+++ (≥50% = +++),144 (IIVPSFYK; listed as Homo sapiens) [compound 144],HLA-A*03:01
+++ (≥50% = +++),146 (KVLVDFLLK; listed as Homo sapiens) [compound 146],HLA-A*03:01
++++ (≥75% = ++++),148 (SVYMATTLK; listed as Homo sapiens) [compound 148],HLA-A*03:01
+++ (≥50% = +++),149 (SMNSKALRWK; listed as Homo sapiens) [compound 149],HLA-A*03:01
,172 (LLYKTLIIL; listed as Homo sapiens) [compound 172],HLA-A*02:01
,176 (AFLLSLISL; listed as Homo sapiens) [compound 176],HLA-A*24:02
,197 (HHTQLVFVF; listed as Homo sapiens) [compound 197],HLA-A*24:02
,211 (VVTIVMHIYK; listed as Homo sapiens) [compound 211],HLA-A*03:01
